Test results taken from article PMC10813298, “Evidence of Guanidines Potential against Leishmania (Viannia) braziliensis: Exploring In Vitro Effectiveness, Toxicities and of Innate Immunity Response Effects” (Biomolecules, 2023).
Entries after “also recorded” stand apart in the source; their conditions may differ. Read-outs that look alike come from different tables or passages of the source.

Key:
[1] = Cytotoxicity against RAW 264.7 macrophages (MTT); type: cell-based, murine; conditions: mouse, RAW 264.7 macrophages, pH 7.2, RAW 264.7 cells
Protocol: (§1) Murine macrophage cell line RAW 264.7 was used in this study. The cells were cultured in 75 cm^2 cell culture flasks (Corning Glass Workers, New York, NY, USA) using DMEM medium with a pH of 7.2, supplemented with 10% FBS and 1% antibiotic solution (containing 100 U/mL penicillin and 100 μg/mL streptomycin). The cells were maintained in an incubator at a temperature of 37 °C with 5% CO2. The spikes were performed after the cells reached complete confluence, characterized by the formation of a monolayer of cells around 48 h to 72 h after packaging.
(§2) In this study, we utilized the RAW 264.7 macrophages line (obtained from ATCC: code TIB-71™),human embryonic kidney cell line HEK-293 (obtained from ATCC: code CRL-1573™)and two human cancer cell cultures: the colon carcinoma cell line CaCo-2 and the adenocarcinomic human alveolar basal epithelial cell A549 (also obtained from ATCC: codesHTB-37™ and CCL-185™).These cell lines were cultured in Dulbecco’s modified Eagle medium (DMEM) from Gibco by Life Technologies (LifeTech Austria, Vienna, Austria). The growth medium was supplemented with 5% fetal bovine serum (FBS) from Gibco by Life Technologies and 1% penicillin-streptomycin obtained from Sigma-Aldrich (Vienna, Austria). The cells were maintained at 37 °C with 5% CO2 in a humidified incubator, and regular checks for mycoplasma contamination were carried out.
(§3) For experimental purposes, the cells were seeded into 96-well plates at a density of 2 × 10^4 cells/mL, with each well containing 100 µL of the cell suspension. The cells were allowed to adhere for 24 h. Subsequently, they were exposed to 100 µL of the test compounds, which were diluted in DMEM, with concentrations ranging from 2 to 600 µmol/L. The stock solutions of these compounds were prepared in water with 10% (v/v) dimethyl sulfoxide (DMSO) and stored at 4 °C.
(§4) To assess cell viability after 72 h of exposure to the compounds, we employed a 3-(4,5-dimethylthiazol-2-yl)-2,5-diphenyltetrazolium bromide (MTT)-based vitality assay kit (EZ4U, Biomedica, Vienna, Austria). Briefly, we added 20 µL of the EZ4U assay solution to each well and incubated the plates in the dark for 2 h. Subsequently, we measured the absorbance using a microplate reader at 450 nm, with 620 nm as a reference to reduce unspecific background values. For reliability, all experiments were conducted three times with triplicate samples.
(§5) The different mean concentrations for promastigotes (IC50) and macrophages (CC50) were calculated using nonlinear regression. For comparisons between groups, ANOVA analysis of variance was performed followed by Tukey’s test in a statistical program, taking the p-value < 0.05 as the maximum level of statistical significance.

[2] = system: L. (V.) braziliensis promastigotes; experiment: Antileishmanial activity on promastigotes (MTT, 72 h); type: cell-based, Leishmania (Viannia) braziliensis
Protocol: Leishmania (Viannia) braziliensis (MHOM/BR/1975/M2903) was utilized in this study. The promastigote forms of these parasites were maintained in vitro in Schneider’s insect medium pH 7.2, supplemented with 20% fetal bovine serum (FBS) and 1% antibiotic solution (100 U/mL penicillin and 100 μg/mL streptomycin) at a temperature of 26 ± 1 °C in a Biochemical Oxygen Demand (BOD) incubator (Eletrolab EL202, São Paulo, Brazil), with regular aeration and weekly subculturing.
(§6) Assessment of antileishmanial activity against promastigote and amastigote axenic forms of parasites followed the method described by Rodrigues et al. and involved the following steps: L. (V.) braziliensis parasites were cultured in 96-well plates at a concentration of 1 × 10^6 parasites per well. Each well contained 100 μL of supplemented Schneider medium. Serial concentrations of the test substances, ranging from 50 to 1.56 μmol/L, were prepared. Reference drugs, meglumine antimoniate (20 to 40,000 μmol/L) and amphotericin B (0.031 to 2 μmol/L) were also prepared. These concentrations were used to assess the effects of the test substances in comparison to reference drugs. The plates were incubated in a BOD incubator at 26 °C for 72 h. After the 72 h incubation period, 10 μL of MTT (5 mg/mL) was added to each well. The plates were then incubated for an additional 4 h. At the end of the 4 h incubation, formazan crystals formed by the reduction of the MTT salt were solubilized by adding 50 μL of a 10% (w/v) sodium dodecyl sulfate (SDS) solution in distilled water. Absorbance was measured using a microplate reader at a wavelength of 540 nm (Biosystems ELx800 model, Curitiba, PR, Brazil). This measurement quantified the metabolic activity of the parasites, which is indicative of their viability and proliferation. Schneider medium containing 0.2% DMSO was used as a negative control in the tests.
as §5

[3] = system: terminal ileum; experiment: Spasmolytic effect on terminal ileum (KCl contraction); conditions: guinea pig terminal ilea, KCl-induced contraction
Protocol: (§7) Guinea pigs of either sex weighing between 250 or 380 g were utilized in this study. The animals were housed in a controlled environment in an air-conditioned room, maintaining a temperature of 22 to 24 °C and a relative humidity of 50% to 60%. A 12 h light–dark cycle was maintained.
(§8) On the day of the experiments, the animals were euthanized via cervical dislocation. The heart, aorta, pulmonary artery, and ileum were surgically removed and immersed in Krebs–Henseleit solution, with the following composition: NaCl 144.9 mM, KCl 4.73 mM, CaCl2 3.2 mM, MgSO4 1.18 mM, NaHCO3 24.9 mM, KH2PO4 1.18 mM, and glucose 10 mM, with the pH maintained at 7.2–7.4. This solution was continuously aerated with a mixture of 95% O2 and 5% CO2.
(§9) Papillary muscles were isolated from the right ventricle of the heart and meticulously cleared of Purkinje fibers to prevent spontaneous activity. To ensure adequate oxygen supply, only muscles with a diameter less than 0.87 mm were used. The right atrium was also dissected for assessment of chronotropic activity. Both the aorta and pulmonary artery were cleaned and cut into 5 mm rings, while the ileum was sectioned into pieces measuring 1 to 2 cm.
(§10) One end of the dissected tissues was securely tied with silver wire for attachment to a tissue holder, while the other end was connected to a force transducer (Transbridge™, 4-Channel Transducer Amplifier, World Precision Instruments, Sarasota, FL, USA). For contractile measurements, the terminal ileum was stimulated with 60 mM KCl, and the pulmonary artery and aorta rings were exposed to a 90 mM KCl solution. Papillary muscles were electrically stimulated using an Anapulse Stimulator Model 301-T and an Isolation Unit Model 305-1 (WPI, Hamden, CT, USA) with rectangular pulses of 3 ms duration at a frequency of 1 Hz. The amplitude of the stimulation pulse was maintained at 10% above the threshold level. To optimize contractility, a constant resting tension was applied throughout the experiment: 3.9 mN for papillary muscle, 4.9 mN for terminal ileum, 10.4 mN for the right atrium, and 19.6 mN for aorta and pulmonary artery rings.
(§11) Following a 30 min control period, different concentrations of test compounds were cumulatively added to the bath solution every 45 min until a stable effect was achieved. The responses were recorded using a chart recorder (BD 112 Dual Channel, Kipp &Zonen, PO Box 507, 2624 BC, Delft, Holland) for subsequent evaluation. Stock concentrations of the test compounds were prepared using DMSO. To account for any potential DMSO effect, control experiments were conducted with the solvent alone, and the observed effects were subtracted from the responses elicited by the test compounds.

[4] = system: aorta; experiment: Vasodilator effect on aortic rings (KCl contraction); conditions: Cavia porcellus; guinea pig aortic rings
Protocol: as §7, §8
as §9, with “Both the aorta and pulmonary artery were cleaned and cut into 5 mm rings, while the ileum was sectioned into pieces measuring 1 to 2 cm.” left out
(§12) Following a 30 min control period, different concentrations of test compounds were cumulatively added to the bath solution every 45 min until a stable effect was achieved. The responses were recorded using a chart recorder (BD 112 Dual Channel, Kipp &Zonen, PO Box 507, 2624 BC, Delft, Holland) for subsequent evaluation. […]

[5] = system: right atrium; experiment: Chronotropic effect on isolated right atrium; parameters: species or system guinea pig; conditions: Cavia porcellus; isolated guinea pig right atrium, 3 to 100 µmol/L; read-out: EC50 reduction of heart rate activity
Protocol: as §7, §8, §9, §10, §11

[6] = system: pulmonary artery; experiment: Vasodilator effect on pulmonary artery rings (KCl contraction); conditions: Cavia porcellus; guinea pig pulmonary artery rings
Protocol: as §7, §8, §9
One end of the dissected tissues was securely tied with silver wire for attachment to a tissue holder, while the other end was connected to a force transducer (Transbridge™, 4-Channel Transducer Amplifier, World Precision Instruments, Sarasota, FL, USA). For contractile measurements, the terminal ileum was stimulated with 60 mM KCl, and the pulmonary artery and aorta rings were exposed to a 90 mM KCl solution. […]
as §12

[7] = system: L. (V.) braziliensis axenic amastigotes; experiment: Antileishmanial activity on axenic amastigotes (MTT, 72 h); type: cell-based, Leishmania (Viannia) braziliensis
Protocol: In vitro amastigogenesis was performed by transformation from promastigotes at the stationary phase of growth to obtention axenic amastigotes. This process involved altering the culture conditions to Schneider’s medium with a pH of 5.5, supplementing them with 5% FBS, and incubating them at a temperature of 32 °C [17].
as §6

[8] = system: RAW 264.7 macrophages; experiment: Cytotoxicity against RAW 264.7 macrophages (MTT); type: cell-based, murine; conditions: RAW 264.7 cells, 72 h
Protocol: as §1, §2, §3, §4, §5

[9] = system: L. (V.) braziliensis intramacrophage amastigotes; experiment: Treatment of RAW 264.7 macrophages infected with L. (V.) braziliensis (intramacrophage amastigotes); type: cell-based, Leishmania (Viannia) braziliensis; conditions: RAW 264.7 infected with L. (V.) braziliensis, 72 h of treatment
Protocol: RAW 264.7 macrophages (1 × 10^6 cells/mL) were seeded in 24-well plates containing sterile glass slides, and approximately 500 μL of supplemented DMEM medium was added. The plates were then incubated at 37 °C with 5% CO2 for 4 h to facilitate cell adhesion. Following the adhesion period, promastigotes (1 × 10^7) in the stationary growth phase were introduced into the wells for infection. The plates were then incubated for an additional 4 h to allow infection to take place. Afterward, the medium was carefully removed, and the wells were washed three times with PBS to eliminate any nonadherent cells. Fresh medium containing serial concentrations of the test substances, ranging from 0.78 to 25 μmol/L, was added to the wells. Additionally, a range of concentrations of glucantime (25 to 800 μmol/L) was included for comparison. The treatment was carried out for 72 h in an incubator at 37 °C with 5% CO2. At the end of the 72 h treatment period, the glass lamina was removed from each well and stained using rapid panoptic stain (Laborklin®, Curitiba, Paraná, Brazil). The stained samples were mounted on permanent slides using Entelan® (Sigma-Aldrich, St. Louis, MO, USA), and antileishmanial activity was assessed by measuring the infection rate and counting the number of amastigotes per macrophage. Quantification was performed using light microscopy at a magnification of 1000×, and a total of 300 macrophages per lamina were evaluated. As a negative control, half DMEM containing 0.2% DMSO was used.

Row | Compound | CC50 at 72 h [1] [µM] | IC50 ([2]; Leishmania braziliensis) [µM] | CC50 [8] [µM] | EC50 [9] [µM] | further results
1 | O=C(/N=C(/NCc1ccccc1)Nc1ccccc1Br)c1ccccc1 [LQOF-G35] | 232 ± 3.5 | 25.9 ± 1.6 | – | – | –
2 | O=C(/N=C(/NCc1ccccc1)Nc1cccc(Br)c1)c1ccccc1 [LQOF-G36] | – | > 50 | – | – | spasmolytic effect / contraction force in the terminal ileum [3]: decrease in contraction force; also recorded: spasmolytic effect; EC50 [4]: 29 µM; EC50 [5]: 38 µM; EC50 [6]: 23.5 µM
3 | Meglumine antimoniate [Meglumine At, reference compound] | – | – | 846 ± 13 | 452 ± 14.3 | EC50 [7]: 2170 µM; EC50 ([9]; listed as Meglumine antimoniate): 452 µM; IC50 [2]: 19300 µM
4 | C[C@@H]1[C@H](O)[C@@H](C)/C=C/C=C/C=C/C=C/C=C/C=C/C=C/[C@H](O[C@@H]2O[C@H](C)[C@@H](O)[C@H](N)[C@@H]2O)C[C@@H]2O[C@](O)(C[C@@H](O)C[C@@H](O)[C@H](O)CC[C@@H](O)C[C@@H](O)CC(=O)O[C@H]1C)C[C@H](O)[C@H]2C(=O)O [Amphotericin B, reference compound] | 0.55 | 0.3 ± 0.01 | 0.5 ± 0.1 | 0.3 ± 0.02 | EC50 ([7]; Leishmania braziliensis): 0.4 µM; EC50 ([9]; Leishmania braziliensis, RAW264.7, 72 h): 0.35 µM
